ChEMBL document CHEMBL1201862, “PubChem BioAssay data set” (2004)
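Following 48 hours of exposure in 96-well plates, responses at five concentrations were used to interpolate endpoints linearly. At the GI50, growth is halved.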 The source made the active and inactive calls. No stated cut-off is given here; in the data, active = GI50 up to about 1.1 µM and inactive = higher.

How the values were obtained:
Test in all cases: growth of human tumour cells (NCI), 48 h
[1] = test system: ACHN
[2] = test system: CAKI-1
[3] = test system: HL-60
[4] = test system: EKVX
[5] = test system: Malme-3M
[6] = test system: NCI/ADR-RES
[7] = test system: NCI-H522
[8] = test system: DU-145
[9] = test system: UACC-257
[10] = test system: OVCAR-4
[11] = test system: SK-MEL-28
[12] = test system: SW-620
[13] = test system: HCT-116
[14] = test system: OVCAR-5
[15] = test system: KM12
[16] = test system: NCI-H460
[17] = test system: RXF 393
[18] = test system: SK-MEL-5
[19] = test system: MDA-MB-231
[20] = test system: PC-3

| Structure (SMILES) | GI50 [1] | GI50 [2] | GI50 [3] | GI50 [4] | GI50 [5] | GI50 [6] | GI50 [7] | GI50 [8] | GI50 [9] | GI50 [10] | GI50 [11] | GI50 [12] | GI50 [13] | GI50 [14] | GI50 [15] | GI50 [16] | GI50 [17] | GI50 [18] | GI50 [19] | GI50 [20] |
| --- | --- | --- | --- | --- | --- | --- | --- | --- | --- | --- | --- | --- | --- | --- | --- | --- | --- | --- | --- | --- |
| CC(C)(Br)C(Br)CC/C(=C/CBr)CBr.CC(C)(Br)C(Br)CC/C(=C\CBr)CBr (stereo not drawn) | 5.83 µM (inactive) | 9.91 µM (inactive) | 0.553 µM (active) | 25.3 µM (inactive) | 3.85 µM (inactive) | 3.11 µM (inactive) | 1.66 µM (inactive) | 10.5 µM (inactive) | 6 µM (inactive) | 5.2 µM (inactive) | 2.27 µM (inactive) | 2.71 µM (inactive) | 2.13 µM (inactive) | 18.6 µM (inactive) | 4.16 µM (inactive) | 3.21 µM (inactive) | 2.22 µM (inactive) | 4.5 µM (inactive) | 12 µM (inactive) | – |
| CCOC(=O)Cc1nc2nn(Cc3ccccc3)cc2c(=O)[nH]1 | > 100 µM (inactive) | > 100 µM (inactive) | > 100 µM (inactive) | > 100 µM (inactive) | > 100 µM (inactive) | > 100 µM (inactive) | – | > 100 µM (inactive) | > 100 µM (inactive) | > 100 µM (inactive) | > 100 µM (inactive) | > 100 µM (inactive) | > 100 µM (inactive) | > 100 µM (inactive) | > 100 µM (inactive) | > 100 µM (inactive) | > 100 µM (inactive) | > 100 µM (inactive) | > 100 µM (inactive) | – |
| C=C(Cl)C(Br)(CBr)CCC(Br)C(C)(C)Br (stereo not drawn) | 9.16 µM (inactive) | > 10 µM (inactive) | – | > 10 µM (inactive) | – | – | > 10 µM (inactive) | > 10 µM (inactive) | – | 3.99 µM (inactive) | > 10 µM (inactive) | 2.7 µM (inactive) | 2.01 µM (inactive) | > 10 µM (inactive) | 4.37 µM (inactive) | – | 2.75 µM (inactive) | > 10 µM (inactive) | 1.62 µM (inactive) | > 10 µM (inactive) |
| CNC(=S)N1CCN(C(C)=O)C1=S | > 100 µM (inactive) | 50 µM (inactive) | 47.8 µM (inactive) | 25.1 µM (inactive) | 12.7 µM (inactive) | 69.3 µM (inactive) | 45.1 µM (inactive) | > 100 µM (inactive) | 70.6 µM (inactive) | 6.56 µM (inactive) | 29.2 µM (inactive) | 86.5 µM (inactive) | > 100 µM (inactive) | > 100 µM (inactive) | 56.9 µM (inactive) | 87.9 µM (inactive) | – | 71.4 µM (inactive) | 4.27 µM (inactive) | – |
| O=P1(Oc2ccccc2)N=P(c2ccccc2)(c2ccccc2)C=C(c2ccc(Cl)cc2)N1 (stereo not drawn) | 13 µM (inactive) | 9.66 µM (inactive) | 4.86 µM (inactive) | 7.89 µM (inactive) | 15.5 µM (inactive) | 10.9 µM (inactive) | 10.1 µM (inactive) | 13.9 µM (inactive) | 15.4 µM (inactive) | – | – | 12.3 µM (inactive) | 7.23 µM (inactive) | 13.1 µM (inactive) | 10.3 µM (inactive) | 5.14 µM (inactive) | – | 2.25 µM (inactive) | 16.5 µM (inactive) | 6.58 µM (inactive) |
| C=CCN1C[C@@H](C)N([C@@H](c2ccc(C(=O)N(CC)CC)cc2)c2cccc(OC)c2)C[C@@H]1C | > 100 µM (inactive) | > 100 µM (inactive) | – | > 100 µM (inactive) | > 100 µM (inactive) | > 100 µM (inactive) | > 100 µM (inactive) | > 100 µM (inactive) | – | > 100 µM (inactive) | > 100 µM (inactive) | > 100 µM (inactive) | > 100 µM (inactive) | > 100 µM (inactive) | > 100 µM (inactive) | – | – | > 100 µM (inactive) | > 100 µM (inactive) | > 100 µM (inactive) |
| Cc1ccc2nc(Cl)c(/C=N/N3C(=O)/C(=C/c4cccc([N+](=O)[O-])c4)N=C3c3ccccc3)cc2c1 | 49.1 µM (inactive) | 66.4 µM (inactive) | 39.2 µM (inactive) | 54.6 µM (inactive) | – | 36.5 µM (inactive) | – | > 100 µM (inactive) | 61.1 µM (inactive) | 58.7 µM (inactive) | > 100 µM (inactive) | 75.5 µM (inactive) | 27.9 µM (inactive) | > 100 µM (inactive) | 36.6 µM (inactive) | 34.4 µM (inactive) | – | 43.5 µM (inactive) | 93.1 µM (inactive) | 25.4 µM (inactive) |
| COC(=O)CN1SC2(SC13C(C)(C)C(=O)C3(C)C)C(C)(C)C(=O)C2(C)C | > 100 µM (inactive) | 54.2 µM (inactive) | – | 63.4 µM (inactive) | 50.6 µM (inactive) | 34.1 µM (inactive) | – | 31.5 µM (inactive) | 48.2 µM (inactive) | > 100 µM (inactive) | > 100 µM (inactive) | 68.7 µM (inactive) | 46 µM (inactive) | > 100 µM (inactive) | 44.6 µM (inactive) | > 10 µM (inactive) | – | 35.2 µM (inactive) | 77.3 µM (inactive) | 29.2 µM (inactive) |
| COc1ccc2oc(=O)c(CC=C(C)C)c(O)c2c1C | > 100 µM (inactive) | > 100 µM (inactive) | > 100 µM (inactive) | > 100 µM (inactive) | > 100 µM (inactive) | > 100 µM (inactive) | > 100 µM (inactive) | > 100 µM (inactive) | > 100 µM (inactive) | – | > 100 µM (inactive) | > 100 µM (inactive) | > 100 µM (inactive) | > 100 µM (inactive) | > 100 µM (inactive) | > 100 µM (inactive) | – | > 100 µM (inactive) | > 100 µM (inactive) | > 100 µM (inactive) |
| COc1cccc(/C(Cl)=C(\C=O)c2cccc(OC)c2)c1 | 6.9 µM (inactive) | 39 µM (inactive) | 2.69 µM (inactive) | 14.9 µM (inactive) | 0.946 µM (active) | – | 2.68 µM (inactive) | – | 15.3 µM (inactive) | 13.8 µM (inactive) | 11.7 µM (inactive) | 6.81 µM (inactive) | 3.28 µM (inactive) | 19.6 µM (inactive) | 12.8 µM (inactive) | 12.7 µM (inactive) | 5.12 µM (inactive) | 11.5 µM (inactive) | – | – |
| CC(=O)OCC1OC(n2ccc(=O)[nH]c2=O)C(OC(C)=O)C(OC(C)=O)C1OC(C)=O (stereo not drawn) | > 100 µM (inactive) | > 100 µM (inactive) | > 10 µM (inactive) | > 100 µM (inactive) | > 100 µM (inactive) | – | > 100 µM (inactive) | – | > 100 µM (inactive) | > 100 µM (inactive) | > 100 µM (inactive) | > 100 µM (inactive) | > 100 µM (inactive) | > 100 µM (inactive) | > 100 µM (inactive) | > 100 µM (inactive) | > 100 µM (inactive) | > 100 µM (inactive) | – | – |
| COc1nc(C(=O)O)c(Cl)c(OC)c1Cl | > 100 µM (inactive) | > 100 µM (inactive) | > 100 µM (inactive) | > 100 µM (inactive) | > 100 µM (inactive) | – | > 100 µM (inactive) | – | > 100 µM (inactive) | > 100 µM (inactive) | > 100 µM (inactive) | > 100 µM (inactive) | > 100 µM (inactive) | > 100 µM (inactive) | > 100 µM (inactive) | > 100 µM (inactive) | > 100 µM (inactive) | > 100 µM (inactive) | – | – |
| N=C1c2ccccc2C(=O)c2c(NCCNCCO)ccc(O)c21 | 3.23 µM (inactive) | 10.3 µM (inactive) | 6.85 µM (inactive) | 12 µM (inactive) | 13.7 µM (inactive) | – | 3.4 µM (inactive) | – | 13.9 µM (inactive) | 23.4 µM (inactive) | 8.15 µM (inactive) | 3.1 µM (inactive) | 3.27 µM (inactive) | 16 µM (inactive) | 6.92 µM (inactive) | 5.06 µM (inactive) | 4.66 µM (inactive) | 7.03 µM (inactive) | – | – |
| O=c1/c(=C/c2ccccc2[N+](=O)[O-])sc2nnc(-c3ccco3)n12 | 52.5 µM (inactive) | 39.7 µM (inactive) | 24.8 µM (inactive) | 36.2 µM (inactive) | 23 µM (inactive) | – | 18.2 µM (inactive) | – | 33.9 µM (inactive) | 22.4 µM (inactive) | 21.8 µM (inactive) | 20.4 µM (inactive) | 26.9 µM (inactive) | 50.2 µM (inactive) | 17.6 µM (inactive) | 25.2 µM (inactive) | 16.8 µM (inactive) | 19.1 µM (inactive) | – | – |
| CCC(C)C(=O)OCC(=O)c1ccc(-c2ccccc2)cc1 (stereo not drawn) | > 100 µM (inactive) | 42.7 µM (inactive) | > 100 µM (inactive) | 25.6 µM (inactive) | 29.1 µM (inactive) | 76.9 µM (inactive) | 22.8 µM (inactive) | 52.2 µM (inactive) | 27.2 µM (inactive) | – | 72.9 µM (inactive) | 53.6 µM (inactive) | 68.7 µM (inactive) | > 100 µM (inactive) | 28.1 µM (inactive) | > 100 µM (inactive) | – | 24.7 µM (inactive) | 78.9 µM (inactive) | 63 µM (inactive) |
| C=CC[C@@H]1C=C[C@@H](C(=O)OC)n2c(=O)n(-c3ccccc3)c(=O)n21 | > 100 µM (inactive) | > 100 µM (inactive) | – | > 100 µM (inactive) | – | > 100 µM (inactive) | > 100 µM (inactive) | > 100 µM (inactive) | > 100 µM (inactive) | > 100 µM (inactive) | > 100 µM (inactive) | > 100 µM (inactive) | > 100 µM (inactive) | > 100 µM (inactive) | > 100 µM (inactive) | – | – | > 100 µM (inactive) | > 100 µM (inactive) | – |
